The source of these data is PubChem BioAssay AID248 (DTP/NCI, 2004).

This assay deals with L1210 leukemia ip in BDF1 mice, survival T/C. The assay can be described thus: NCI In Vivo Anticancer Drug Screen. Data for tumor model L1210 Leukemia (intraperitoneal) in B6D2F1 (BDF1) mice. Particulars: endpoint: mean survival time, higher = longer survival. The essentials:
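Ratio derived from survival: compound-dosed mice over vehicle-dosed mice, all bearing a transplantable tumor.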

Setting [1] is: dose: 100.0 mg/kg/injection, schedule: Q01DX009 (ip), vehicle: saline with Tween-80.
The mark [2] stands for this setting: dose: 200.0 mg/kg/injection, schedule: Q01DX009 (ip), vehicle: saline with Tween-80.
The mark [3] stands for this setting: dose: 400.0 mg/kg/injection, schedule: Q01DX009 (ip), vehicle: saline with Tween-80.
The mark [4] stands for this setting: dose: 100.0 mg/kg/injection, schedule: Q04DX002 (ip), vehicle: saline with Tween-80.
Setting [5] is: dose: 200.0 mg/kg/injection, schedule: Q04DX002 (ip), vehicle: saline with Tween-80.
Where [6] appears, read: dose: 400.0 mg/kg/injection, schedule: Q04DX002 (ip), vehicle: saline with Tween-80.
Setting [7] is: dose: 100.0 mg/kg/injection, schedule: Q04DX003 (ip), vehicle: saline with Tween-80.
Where [8] appears, read: dose: 200.0 mg/kg/injection, schedule: Q04DX003 (ip), vehicle: saline with Tween-80.
Setting [9] is: dose: 3.12 mg/kg/injection, schedule: Q01DX009 (ip), vehicle: saline.
Where [10] appears, read: dose: 6.25 mg/kg/injection, schedule: Q01DX009 (ip), vehicle: saline.
Where [11] appears, read: dose: 12.5 mg/kg/injection, schedule: Q01DX009 (ip), vehicle: saline.
[12] abbreviates: dose: 25.0 mg/kg/injection, schedule: Q01DX009 (ip), vehicle: saline.
Setting [13] is: dose: 25.0 mg/kg/injection, schedule: Q04DX003 (ip), vehicle: saline.
The mark [14] stands for this setting: dose: 50.0 mg/kg/injection, schedule: Q01DX009 (ip), vehicle: saline.
The mark [15] stands for this setting: dose: 50.0 mg/kg/injection, schedule: Q04DX003 (ip), vehicle: saline.

Values joined by “and” are separate entries in the source; they are usually repeats but may differ in a detail not shown here. Equal entries are not always repeated. Toxic doses and inconclusive results are not listed.

Turning to `CCCCCCCCC1SC1CCCCCCCC(=O)OCCOCCOCC` (centres undefined), the T/C was 95 % of control under setting [1], 92 % of control under setting [2] and 95 % of control under setting [3].

`O=C(C[P+](c1ccccc1)(c1ccccc1)c1ccccc1)Nc1ccccc1`: the T/C runs as follows: (dose: 10.0 mg/kg/injection, schedule: Q01DX009 (ip), vehicle: Klucel (hydroxypropylcellulose) (HPC)) 100 % of control; (dose: 20.0 mg/kg/injection, schedule: Q01DX009 (ip), vehicle: Klucel (hydroxypropylcellulose) (HPC)) 108 % of control; (dose: 40.0 mg/kg/injection, schedule: Q01DX009 (ip), vehicle: Klucel (hydroxypropylcellulose) (HPC)) 100 % of control; (dose: 75.0 mg/kg/injection, schedule: Q01DX009 (ip), vehicle: Klucel (hydroxypropylcellulose) (HPC)) 107 % of control.

For `N#CC(CCO)(CCO)c1ccccc1`, the T/C is 101 % of control (dose: 100.0 mg/kg/injection, schedule: Q01DX009 (ip), vehicle: Klucel (hydroxypropylcellulose) (HPC)); 97 % of control (dose: 200.0 mg/kg/injection, schedule: Q01DX009 (ip), vehicle: Klucel (hydroxypropylcellulose) (HPC)); 105 % of control (dose: 400.0 mg/kg/injection, schedule: Q01DX009 (ip), vehicle: Klucel (hydroxypropylcellulose) (HPC)).

For `OC1COC(c2ccccc2)OC1C(O)C1OC(c2ccccc2)OCC1O` (centres undefined), the T/C is, setting by setting: under setting [4], 89 % of control; under setting [5], 105 % of control; under setting [6], 102 % of control.

As for `CCCCOC(=O)C1OC1c1ccccc1` (centres undefined), the T/C is, setting by setting: under setting [1], 88 % of control; under setting [4], 90 % of control; under setting [2], 95 % of control; under setting [5], 88 % of control; under setting [3], 95 % of control; under setting [6], 102 % of control.

On to `Cc1ccc(NC(=O)N(CCCl)N=O)cc1Cl`, for which the T/C is, setting by setting: (dose: 0.5 mg/kg/injection, schedule: Q01DX009 (ip), vehicle: carboxymethylcellulose (CMC)) 112 % of control; (dose: 1.0 mg/kg/injection, schedule: Q01DX009 (ip), vehicle: carboxymethylcellulose (CMC)) 117 % of control; (dose: 13.0 mg/kg/injection, schedule: Q01DX001 (ip), vehicle: carboxymethylcellulose (CMC)) 120 % of control; (dose: 13.0 mg/kg/injection, schedule: Q01DX007 (ip), vehicle: carboxymethylcellulose (CMC)) 159 % of control; (dose: 14.0 mg/kg/injection, schedule: Q01DX009 (ip), vehicle: carboxymethylcellulose (CMC)) 164 % of control; (dose: 29.0 mg/kg/injection, schedule: Q01DX001 (ip), vehicle: other) 229 % of control. The T/C is 166 % of control (dose: 33.0 mg/kg/injection, schedule: Q01DX009 (ip), vehicle: carboxymethylcellulose (CMC)); 159 % of control (dose: 44.0 mg/kg/injection, schedule: Q01DX001 (ip), vehicle: other); 159 % of control (dose: 44.4 mg/kg/injection, schedule: Q01DX001 (ip), vehicle: carboxymethylcellulose (CMC)); 244 % of control (dose: 66.6 mg/kg/injection, schedule: Q01DX001 (ip), vehicle: carboxymethylcellulose (CMC)); 193 % of control (dose: 100.0 mg/kg/injection, schedule: Q01DX001 (ip), vehicle: carboxymethylcellulose (CMC)); 100 % of control (dose: 150.0 mg/kg/injection, schedule: Q01DX001 (ip), vehicle: carboxymethylcellulose (CMC)).

For the compound `Cc1ccccc1S(=O)(=O)c1cccs1`, the T/C reads like this: (dose: 100.0 mg/kg/injection, schedule: Q01DX001 (ip), vehicle: saline) 98 % of control; (dose: 100.0 mg/kg/injection, schedule: Q04DX003 (ip), vehicle: acetone) 98 % of control; (dose: 200.0 mg/kg/injection, schedule: Q01DX001 (ip), vehicle: saline) 95 % of control; (dose: 200.0 mg/kg/injection, schedule: Q04DX003 (ip), vehicle: acetone) 104 % of control; (dose: 400.0 mg/kg/injection, schedule: Q01DX001 (ip), vehicle: saline) 93 % of control; (dose: 400.0 mg/kg/injection, schedule: Q04DX003 (ip), vehicle: acetone) 93 % of control.

For `C(=C\c1ccnc2ccccc12)/c1ccccc1`, the T/C by setting is: (dose: 100.0 mg/kg/injection, schedule: Q01DX009 (ip), vehicle: saline) 101 % of control; under setting [7], 89 % of control; (dose: 200.0 mg/kg/injection, schedule: Q01DX009 (ip), vehicle: saline) 101 % of control; under setting [8], 94 % of control; (dose: 400.0 mg/kg/injection, schedule: Q01DX009 (ip), vehicle: saline) 100 % of control; (dose: 400.0 mg/kg/injection, schedule: Q04DX003 (ip), vehicle: saline with Tween-80) 89 % of control.

As for `C=CCNC(=S)Nc1ccccc1C=O`, the T/C is 100 % of control (dose: 25.0 mg/kg/injection, schedule: Q04DX002 (ip), vehicle: Klucel (hydroxypropylcellulose) (HPC)); 106 % of control (dose: 50.0 mg/kg/injection, schedule: Q04DX002 (ip), vehicle: Klucel (hydroxypropylcellulose) (HPC)); 110 % of control and 90 % of control (dose: 100.0 mg/kg/injection, schedule: Q04DX002 (ip), vehicle: Klucel (hydroxypropylcellulose) (HPC)).

As to `Cc1cc2nc3ccc(=[N+](C)C)cc-3sc2cc1N`, the T/C under setting [9] was 94 % of control; the T/C under setting [10] is 100 % of control; the T/C under setting [11] was 117 % of control; the T/C under setting [12] was 101 % of control; the T/C under setting [13] was 98 % of control; the T/C under setting [14] is 100 % of control. For the same compound, the T/C under setting [15] is 106 % of control.

For the compound `CCCCc1ccc(-n2cnc3c(=O)[nH]c(N)nc32)cc1`, the T/C is 88 % of control under setting [7] and 97 % of control under setting [8].

Take `Nc1nc(N)[n+]([O-])c(N)c1NCO`: the T/C was 101 % of control (dose: 88.0 mg/kg/injection, schedule: Q01DX001 (ip), vehicle: other); 97 % of control (dose: 100.0 mg/kg/injection, schedule: Q01DX001 (ip), vehicle: other); 103 % of control (dose: 133.0 mg/kg/injection, schedule: Q01DX001 (ip), vehicle: other); 103 % of control (dose: 300.0 mg/kg/injection, schedule: Q01DX001 (ip), vehicle: other); 94 % of control (dose: 400.0 mg/kg/injection, schedule: Q01DX001 (ip), vehicle: other).

On to `CN(C)CCOc1ccc(Cl)cc1Cc1ccccc1`, for which the T/C reads like this: under setting [9], 95 % of control; under setting [10], 95 % of control; under setting [11], 118 % of control; under setting [12], 105 % of control; under setting [13], 100 % of control; under setting [14], 112 % of control. Moreover, the T/C under setting [15] is 94 % of control.

`COc1nc(N)nc2c1ncn2C1OC(CO)C(O)C1O` (centres undefined): the T/C reads like this: (dose: 75.0 mg/kg/injection, schedule: Q01DX001 (ip), vehicle: saline) 102 % of control; (dose: 150.0 mg/kg/injection, schedule: Q01DX001 (ip), vehicle: saline) 93 % of control.

For `C=C1N(C)c2ccc(Cl)cc2C1(C)C`, the T/C was 102 % of control (dose: 50.0 mg/kg/injection, schedule: Q01DX009 (ip), vehicle: saline with Tween-80); 98 % of control under setting [1]; 94 % of control under setting [7]; 96 % of control under setting [8].

`NS(=O)(=O)c1ccc(NC(=S)NC(=O)/C=C/c2ccccc2)cc1`: the T/C by setting is: (dose: 100.0 mg/kg/injection, schedule: Q01DX009 (sc), vehicle: olive oil, sesame oil, peanut oil) 107 % of control; (dose: 100.0 mg/kg/injection, schedule: Q04DX003 (sc), vehicle: olive oil, sesame oil, peanut oil) 107 % of control; (dose: 200.0 mg/kg/injection, schedule: Q01DX009 (sc), vehicle: olive oil, sesame oil, peanut oil) 113 % of control; (dose: 200.0 mg/kg/injection, schedule: Q04DX003 (sc), vehicle: olive oil, sesame oil, peanut oil) 97 % of control; (dose: 400.0 mg/kg/injection, schedule: Q01DX009 (sc), vehicle: olive oil, sesame oil, peanut oil) 104 % of control; (dose: 400.0 mg/kg/injection, schedule: Q04DX003 (sc), vehicle: olive oil, sesame oil, peanut oil) 103 % of control.
